Measured values taken from PubChem BioAssay AID2060337 (Molecular Pharmacology Branch, DTP, NCI, 2025).

System: 832693-133-R-J1-PDC multi-cell spheroids, viability
Assay: Anticancer human tumor 832693-133-R-J1-PDC patient-derived head and neck squamous carcinoma cell line growth inhibition [IpAb]
Conditions: for IC50: curve of first compound; for viability, T/C: stronger effect = lower value
Summary of the method: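 Multi-cell spheroids of 60% tumour cells, 25% HUVEC and 15% MSC in ultra-low-attachment U-bottom wells, treated with agents combined with ipatasertib or abemaciclib. Half-log ranges top out near clinical Cmax, or 10 microM when Cmax is unknown.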

[1] = second compound 0.1 µM, first compound 0.0316 µM
[2] = second compound 0.1 µM, first compound 0.1 µM
[3] = second compound 0.1 µM, first compound 0.316 µM
[4] = second compound 0.1 µM, first compound 1 µM
[5] = second compound 0.316 µM, first compound 0.0316 µM
[6] = second compound 0.316 µM, first compound 0.1 µM
[7] = second compound 0.316 µM, first compound 0.316 µM
[8] = second compound 0.316 µM, first compound 1 µM
[9] = second compound 1 µM, first compound 0.0316 µM
[10] = second compound 1 µM, first compound 0.1 µM
[11] = second compound 1 µM, first compound 0.316 µM
[12] = second compound 1 µM, first compound 1 µM
[13] = second compound 3.16 µM, first compound 0.0316 µM
[14] = second compound 3.16 µM, first compound 0.1 µM
[15] = second compound 3.16 µM, first compound 0.316 µM
[16] = second compound 3.16 µM, first compound 1 µM
[17] = second compound 10 µM, first compound 0.0316 µM
[18] = second compound 10 µM, first compound 0.1 µM
[19] = second compound 10 µM, first compound 0.316 µM
[20] = second compound 10 µM, first compound 1 µM
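Further: spheroids exposed to the drugs for one week before the viability readout.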
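Wherever viability, T/C is given: 100% = DMSO vehicle control wells.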

Structure (SMILES) | IC50 (second compound 0.1 µM) [nM] | IC50 (second compound 0.316 µM) [nM] | IC50 (second compound 1 µM) [nM] | IC50 (second compound 3.16 µM) [nM] | IC50 (second compound 10 µM) [nM] | viability, T/C [1] [%] | viability, T/C [2] [%] | viability, T/C [3] [%] | viability, T/C [4] [%] | viability, T/C [5] [%] | viability, T/C [6] [%] | viability, T/C [7] [%] | viability, T/C [8] [%] | viability, T/C [9] [%] | viability, T/C [10] [%] | viability, T/C [11] [%] | viability, T/C [12] [%] | viability, T/C [13] [%] | viability, T/C [14] [%] | viability, T/C [15] [%] | other results
COc1c(OCCCN2CCOCC2)ccc2c3n(c(=NC(=O)c4cnc(N)nc4)nc12)CCN3 + CC(C)NCC(C(=O)N1CCN(c2ncnc3c2C(C)CC3O)CC1)c1ccc(Cl)cc1 | 15.4 | 5.27 | < 3.16 | < 3.16 | < 3.16 | 27.4 | 7.23 | 4.92 | 4.02 | 19.2 | 7.29 | 3.93 | 3.87 | 12.7 | 6.94 | 4.52 | 3.27 | 11.2 | 7.39 | 5.57 | viability, T/C (second compound 0.1 µM, first compound 0.00316 µM): 83.1%; viability, T/C (second compound 0.1 µM, first compound 0.01 µM): 63.4%; viability, T/C (second compound 0.316 µM, first compound 0.00316 µM): 59.6%; viability, T/C (second compound 0.316 µM, first compound 0.01 µM): 37.7%; viability, T/C (second compound 1 µM, first compound 0.00316 µM): 43.2%; viability, T/C (second compound 1 µM, first compound 0.01 µM): 20.6%; viability, T/C (second compound 3.16 µM, first compound 0.00316 µM): 30.5%; viability, T/C (second compound 3.16 µM, first compound 0.01 µM): 18.4%; viability, T/C [16]: 4.86%; viability, T/C (second compound 10 µM, first compound 0.00316 µM): 32.8%; viability, T/C (second compound 10 µM, first compound 0.01 µM): 22.8%; viability, T/C [17]: 14.2%; viability, T/C [18]: 7.94%; viability, T/C [19]: 5.9%; viability, T/C [20]: 5.91%
Cc1nc(NC(=O)N2CCCC2C(N)=O)sc1-c1ccnc(C(C)(C)C(F)(F)F)c1 (stereo not given) + CC(C)NCC(C(=O)N1CCN(c2ncnc3c2C(C)CC3O)CC1)c1ccc(Cl)cc1 | 452 | 260 | 40.9 | < 31.6 | 45 | 90.3 | 78.8 | 51.3 | 41 | 77.8 | 64.2 | 49 | 23.8 | 52.2 | 41.5 | 26.8 | 16 | 46 | 32.8 | 24.4 | viability, T/C (second compound 0.1 µM, first compound 3.16 µM): 14.1%; viability, T/C (second compound 0.1 µM, first compound 10 µM): 4.68%; viability, T/C (second compound 0.316 µM, first compound 3.16 µM): 12.8%; viability, T/C (second compound 0.316 µM, first compound 10 µM): 3.31%; viability, T/C (second compound 1 µM, first compound 3.16 µM): 9.89%; viability, T/C (second compound 1 µM, first compound 10 µM): 2.93%; viability, T/C [16]: 16.3%; viability, T/C (second compound 3.16 µM, first compound 3.16 µM): 10.7%; viability, T/C (second compound 3.16 µM, first compound 10 µM): 3.55%; viability, T/C [17]: 55.6%; viability, T/C [18]: 38.4%; viability, T/C [19]: 28.6%; viability, T/C [20]: 19.1%; viability, T/C (second compound 10 µM, first compound 3.16 µM): 13.3%; viability, T/C (second compound 10 µM, first compound 10 µM): 3.58%
